These results are taken from US20250228835A1, “PYRIDINYLOXYPYRIDINES AND RELATED COMPOUNDS AND THEIR USE IN TREATING MEDICAL CONDITIONS” (Rectify Pharmaceuticals, Inc., priority 2024, published 2025).

The assay deals with T1, ABCC6 WT (Homo sapiens, UniProt O95255).
T1 construct: expressed in transfected cells; host or cells: HEK-293 (transient, Lipofectamine 2000)
In words: ABCC6 WT assay: HiBit protein expression. Format: cell-based. As to conditions: HEK-293 cells transiently expressing HiBit-tagged ABCC6 WT; 24 h treatment; top concentration 20 μM; read-out: ABCC6 WT EC50, Emax. The essentials:
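HEK-293 cells transiently transfected with HiBit-tagged human ABCC6 WT cDNA, seeded 24 h post-transfection, treated 24 h at 37° C with ten 2-fold doses (top 20 μM final, 0.15% DMSO). HiBit lytic luminescence reports protein expression; Emax and EC50 derived.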

T1 sequence (O95255 whole entry): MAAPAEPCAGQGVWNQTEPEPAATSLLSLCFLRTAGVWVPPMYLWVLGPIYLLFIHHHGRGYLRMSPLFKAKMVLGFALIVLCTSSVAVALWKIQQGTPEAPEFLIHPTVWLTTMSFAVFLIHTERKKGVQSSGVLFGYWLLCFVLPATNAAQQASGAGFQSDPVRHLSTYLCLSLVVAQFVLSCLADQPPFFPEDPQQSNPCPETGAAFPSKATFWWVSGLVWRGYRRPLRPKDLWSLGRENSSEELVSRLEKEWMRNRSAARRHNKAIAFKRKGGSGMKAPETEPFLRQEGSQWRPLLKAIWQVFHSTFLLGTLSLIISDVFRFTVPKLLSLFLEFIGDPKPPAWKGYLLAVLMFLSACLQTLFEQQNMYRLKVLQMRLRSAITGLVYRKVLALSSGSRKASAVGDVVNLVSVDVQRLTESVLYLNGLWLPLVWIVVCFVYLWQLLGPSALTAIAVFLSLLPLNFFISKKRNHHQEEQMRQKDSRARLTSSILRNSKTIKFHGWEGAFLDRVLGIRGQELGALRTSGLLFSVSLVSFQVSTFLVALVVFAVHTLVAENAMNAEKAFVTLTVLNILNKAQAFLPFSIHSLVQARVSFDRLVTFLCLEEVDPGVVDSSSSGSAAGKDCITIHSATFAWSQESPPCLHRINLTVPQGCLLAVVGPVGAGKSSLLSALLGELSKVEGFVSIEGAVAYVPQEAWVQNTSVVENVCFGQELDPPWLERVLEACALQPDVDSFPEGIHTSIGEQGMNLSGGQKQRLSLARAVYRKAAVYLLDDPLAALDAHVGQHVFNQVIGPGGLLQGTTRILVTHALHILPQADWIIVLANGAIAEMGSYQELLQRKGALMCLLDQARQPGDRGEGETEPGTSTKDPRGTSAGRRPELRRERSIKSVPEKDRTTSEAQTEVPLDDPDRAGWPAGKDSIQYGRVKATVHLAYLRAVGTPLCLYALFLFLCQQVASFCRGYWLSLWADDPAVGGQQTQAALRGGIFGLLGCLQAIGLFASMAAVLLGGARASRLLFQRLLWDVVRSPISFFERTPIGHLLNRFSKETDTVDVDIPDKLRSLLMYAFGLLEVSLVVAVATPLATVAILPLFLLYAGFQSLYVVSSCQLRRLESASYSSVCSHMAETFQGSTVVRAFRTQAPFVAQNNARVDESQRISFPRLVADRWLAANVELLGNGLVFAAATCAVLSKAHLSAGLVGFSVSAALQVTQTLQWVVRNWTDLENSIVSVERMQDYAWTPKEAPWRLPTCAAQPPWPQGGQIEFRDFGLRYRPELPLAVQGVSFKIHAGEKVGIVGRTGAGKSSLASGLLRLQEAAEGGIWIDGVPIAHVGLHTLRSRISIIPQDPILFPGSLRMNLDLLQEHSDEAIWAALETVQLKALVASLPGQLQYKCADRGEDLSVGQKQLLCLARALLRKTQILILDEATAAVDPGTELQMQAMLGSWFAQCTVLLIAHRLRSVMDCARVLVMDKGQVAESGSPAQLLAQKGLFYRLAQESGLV

In general, EC50 refers to the concentration giving half of the maximal effect. `Cc1cc(C(F)(F)F)nc(C)c1Oc1nc(-c2cncc(C#N)c2)ccc1NS(=O)(=O)C1CC1` [Compound I-218]: the EC50 is less than 1000 nM.

For `Cc1nc(C2CC2)c(C(F)F)cc1Oc1nc(-c2cncc(C#N)c2)ccc1NS(C)(=O)=O` [Compound I-179], the EC50 was less than 1000 nM.

As for `Cc1cc(C(F)F)nc(C)c1Oc1nc(-c2cncc(C3COC3)c2)ccc1NS(C)(=O)=O` [Compound I-197], the EC50 is less than 1000 nM.

As to `Cc1cc(C)c(Oc2nc(-n3cc(C)cn3)ccc2NS(C)(=O)=O)c(C)c1` [Compound I-11], the EC50 was in the range of 1000 to 10000 nM.

Regarding `Cc1cc(C)c(Oc2nc(-c3ccnc(C#N)c3)ccc2NS(=O)(=O)C2CC2)c(C)n1` [Compound I-211], the EC50 is less than 1000 nM.

Take `Cc1cc(C)c(Oc2nc(-c3cncc(N4CCC4)c3)ccc2NS(C)(=O)=O)c(C)n1` [Compound I-190]: the EC50 was less than 1000 nM.

For `Cc1cc(C2CC2)nc(C)c1Oc1nc(-c2cncc(C#N)c2)ccc1NS(=O)(=O)C1COC1` [Compound I-235], the EC50 was less than 1000 nM.

On to `Cc1nc(C)c(Oc2nc(-c3cncc(C#N)c3)ccc2NS(C)(=O)=O)c(C)n1` [Compound I-234], for which the EC50 was less than 1000 nM.

On to `Cc1cc(C)c(Oc2nc(N3CCN(C(=O)C4(C)CC4)CC3)ccc2NS(C)(=O)=O)c(C)c1` [Compound I-15], for which the EC50 lay within 1000 to 10000 nM.

Consider `Cc1cc(C)c(Oc2nc(-c3cncc(S(C)(=N)=O)c3)ccc2NS(C)(=O)=O)c(C)n1` (stereo not shown) [Compound I-116], for which the EC50 was not below 25000 nM.

As to `Cc1nc(C)c(Oc2nc(-c3cncc(C(F)(F)F)c3)ccc2NS(C)(=O)=O)c(C)n1` [Compound I-192], the EC50 is less than 1000 nM.

With `Cc1cc(N2CCC2)nc(C)c1Oc1nc(-c2cncc(C#N)c2)ccc1NS(C)(=O)=O` [Compound I-177], the EC50 was less than 1000 nM.

Turning to `Cc1cc(C)c(Oc2nc(-c3cncc(C#N)c3)ccc2NS(=O)(=O)C2COC2)c(C)n1` [Compound I-228], the EC50 was less than 1000 nM.
